Measured values from PubChem BioAssay AID1918946 (Molecular Pharmacology Branch, DTP, NCI, 2023).

Test system: 885512-296-R-J2-PDC complex spheroid viability
Experiment: Anticancer human tumor 885512-296-R-J2-PDC patient-derived breast carcinoma cell line growth inhibition
Details: for IC50: curve of first compound; for viability, T/C: stronger effect = lower value; active means viability on the fitted dose curve at most 10% of control; inactive means the rest
In short: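 Multicellular complex spheroids of tumor cells with human endothelial cells (HUVEC) and mesenchymal stem cells; the LSD1 inhibitor iadademstat was combined with standard-of-care or investigational agents. Top concentration at or near clinical Cmax, half-log dilutions; final DMSO ≤0.25%.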

[1] = second compound 0.1 µM, first compound 0.0316 µM
[2] = second compound 0.1 µM, first compound 0.1 µM
[3] = second compound 0.316 µM, first compound 0.0316 µM
[4] = second compound 0.316 µM, first compound 0.1 µM
[5] = second compound 1 µM, first compound 0.0316 µM
[6] = second compound 1 µM, first compound 0.1 µM
[7] = second compound 3.16 µM, first compound 0.0316 µM
[8] = second compound 3.16 µM, first compound 0.1 µM
[9] = second compound 10 µM, first compound 0.0316 µM
[10] = second compound 10 µM, first compound 0.1 µM
[11] = second compound 0.1 µM, first compound 0.000949 µM
[12] = second compound 0.1 µM, first compound 0.003 µM
[13] = second compound 0.1 µM, first compound 0.00949 µM
[14] = second compound 0.1 µM, first compound 0.03 µM
[15] = second compound 0.1 µM, first compound 0.0949 µM
[16] = second compound 0.1 µM, first compound 0.3 µM
[17] = second compound 0.316 µM, first compound 0.000949 µM
[18] = second compound 0.316 µM, first compound 0.003 µM
[19] = second compound 0.316 µM, first compound 0.00949 µM
[20] = second compound 0.316 µM, first compound 0.03 µM
[21] = second compound 0.316 µM, first compound 0.0949 µM
[22] = second compound 0.316 µM, first compound 0.3 µM
[23] = second compound 1 µM, first compound 0.000949 µM
[24] = second compound 1 µM, first compound 0.003 µM
[25] = second compound 1 µM, first compound 0.00949 µM
[26] = second compound 1 µM, first compound 0.03 µM
[27] = second compound 1 µM, first compound 0.0949 µM
[28] = second compound 1 µM, first compound 0.3 µM
[29] = second compound 3.16 µM, first compound 0.000949 µM
[30] = second compound 3.16 µM, first compound 0.003 µM
[31] = second compound 3.16 µM, first compound 0.00949 µM
[32] = second compound 3.16 µM, first compound 0.03 µM
[33] = second compound 3.16 µM, first compound 0.0949 µM
[34] = second compound 3.16 µM, first compound 0.3 µM
[35] = second compound 10 µM, first compound 0.000949 µM
[36] = second compound 10 µM, first compound 0.003 µM
[37] = second compound 10 µM, first compound 0.00949 µM
[38] = second compound 10 µM, first compound 0.03 µM
[39] = second compound 10 µM, first compound 0.0949 µM
[40] = second compound 10 µM, first compound 0.3 µM
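Further: spheroids exposed to agents for 7 days before viability read.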

CC[C@@]1(O)C(=O)OCc2c1cc1n(c2=O)Cc2cc3c(CN(C)C)c(O)ccc3nc2-1 + NC1CCC(NC2CC2c2ccccc2)CC1
active: viability, T/C (second compound 0.1 µM, first compound 0.00316 µM) 9.2% | viability, T/C (second compound 0.1 µM, first compound 0.01 µM) 3.46% | viability, T/C [1] 7.41% | viability, T/C [2] 12.3% | viability, T/C (second compound 0.316 µM, first compound 0.00316 µM) 7.03% | viability, T/C (second compound 0.316 µM, first compound 0.01 µM) 3.42% | viability, T/C [3] 5.16% | viability, T/C [4] 7.04% | viability, T/C (second compound 1 µM, first compound 0.00316 µM) 6.72% | viability, T/C (second compound 1 µM, first compound 0.01 µM) 5.59% | viability, T/C [5] 3.12% | viability, T/C [6] 4.36% | viability, T/C (second compound 3.16 µM, first compound 0.00316 µM) 5.15% | viability, T/C (second compound 3.16 µM, first compound 0.01 µM) 6.21% | viability, T/C [7] 2.51% | viability, T/C [8] 2.21% | viability, T/C (second compound 10 µM, first compound 0.00316 µM) 5.78% | viability, T/C (second compound 10 µM, first compound 0.01 µM) 3.89% | viability, T/C [9] 2.72% | viability, T/C [10] 1.8%
0.398 nM: IC50 (second compound 10 µM)
0.571 nM: IC50 (second compound 0.316 µM)
inactive: viability, T/C (second compound 0.1 µM, first compound 0.000316 µM) 74% | viability, T/C (second compound 0.1 µM, first compound 0.001 µM) 17.8% | viability, T/C (second compound 0.316 µM, first compound 0.000316 µM) 81.8% | viability, T/C (second compound 0.316 µM, first compound 0.001 µM) 19.7% | viability, T/C (second compound 1 µM, first compound 0.000316 µM) 66.9% | viability, T/C (second compound 1 µM, first compound 0.001 µM) 20.4% | viability, T/C (second compound 3.16 µM, first compound 0.000316 µM) 71.7% | viability, T/C (second compound 3.16 µM, first compound 0.001 µM) 16.6% | viability, T/C (second compound 10 µM, first compound 0.000316 µM) 59.4% | viability, T/C (second compound 10 µM, first compound 0.001 µM) 13.6%
0.497 nM: IC50 (second compound 3.16 µM)
0.517 nM: IC50 (second compound 0.1 µM)
0.48 nM: IC50 (second compound 1 µM)

CCc1c2c(nc3ccc(O)cc13)-c1cc3c(c(=O)n1C2)COC(=O)[C@]3(O)CC + NC1CCC(NC2CC2c2ccccc2)CC1
< 0.949 nM: IC50 (second compound 0.1 µM) | IC50 (second compound 0.316 µM) | IC50 (second compound 1 µM) | IC50 (second compound 3.16 µM) | IC50 (second compound 10 µM)
active: viability, T/C [11] 5.05% | viability, T/C [12] 2.28% | viability, T/C [13] 7.01% | viability, T/C [14] 6.9% | viability, T/C [15] 6.49% | viability, T/C [16] 3.96% | viability, T/C [17] 2.42% | viability, T/C [18] 4.76% | viability, T/C [19] 4.46% | viability, T/C [20] 6.46% | viability, T/C [21] 6.66% | viability, T/C [22] 4.85% | viability, T/C [23] 4.94% | viability, T/C [24] 2.3% | viability, T/C [25] 1.74% | viability, T/C [26] 1.31% | viability, T/C [27] 1.26% | viability, T/C [28] 3.93% | viability, T/C [29] 1.98% | viability, T/C [30] 2.41% | viability, T/C [31] 1.65% | viability, T/C [32] 4.17% | viability, T/C [33] 1.31% | viability, T/C [34] 6.19% | viability, T/C [35] 2.47% | viability, T/C [36] 1.92% | viability, T/C [37] 1.39% | viability, T/C [38] 3.6% | viability, T/C [39] 3.36% | viability, T/C [40] 1.14%

Nc1ccccc1NC(=O)c1ccc(CNC(=O)OCc2cccnc2)cc1 + NC1CCC(NC2CC2c2ccccc2)CC1
90.7 nM: IC50 (second compound 10 µM)
106 nM: IC50 (second compound 0.1 µM)
124 nM: IC50 (second compound 3.16 µM)
123 nM: IC50 (second compound 1 µM)
108 nM: IC50 (second compound 0.316 µM)
inactive: viability, T/C [13] 123% | viability, T/C [14] 111% | viability, T/C [15] 50.6% | viability, T/C [16] 25.3% | viability, T/C (second compound 0.1 µM, first compound 0.949 µM) 16.7% | viability, T/C (second compound 0.1 µM, first compound 3 µM) 7.75% | viability, T/C [19] 115% | viability, T/C [20] 110% | viability, T/C [21] 51.7% | viability, T/C [22] 24.6% | viability, T/C (second compound 0.316 µM, first compound 0.949 µM) 15.5% | viability, T/C (second compound 0.316 µM, first compound 3 µM) 8.27% | viability, T/C [25] 116% | viability, T/C [26] 106% | viability, T/C [27] 52.9% | viability, T/C [28] 28.6% | viability, T/C (second compound 1 µM, first compound 0.949 µM) 11.4% | viability, T/C [31] 123% | viability, T/C [32] 105% | viability, T/C [33] 54.1% | viability, T/C [34] 26.6% | viability, T/C (second compound 3.16 µM, first compound 0.949 µM) 12.5% | viability, T/C [37] 107% | viability, T/C [38] 89.8% | viability, T/C [39] 46.5% | viability, T/C [40] 20.5%
active: viability, T/C (second compound 1 µM, first compound 3 µM) 6.94% | viability, T/C (second compound 3.16 µM, first compound 3 µM) 4.09% | viability, T/C (second compound 10 µM, first compound 0.949 µM) 9.82% | viability, T/C (second compound 10 µM, first compound 3 µM) 4.99%

Nc1ccn(C2OC(CO)C(O)C2(F)F)c(=O)n1 (stereo not given) + NC1CCC(NC2CC2c2ccccc2)CC1
< 0.949 nM: IC50 (second compound 0.1 µM) | IC50 (second compound 0.316 µM) | IC50 (second compound 1 µM) | IC50 (second compound 3.16 µM) | IC50 (second compound 10 µM)
inactive: viability, T/C [23] 10.2%
active: viability, T/C [11] 2.54% | viability, T/C [12] 9.95% | viability, T/C [13] 3.52% | viability, T/C [14] 9.59% | viability, T/C [15] 5.54% | viability, T/C [16] 10.4% | viability, T/C [17] 2.51% | viability, T/C [18] 5.66% | viability, T/C [19] 5.62% | viability, T/C [20] 2.98% | viability, T/C [21] 10% | viability, T/C [22] 7.9% | viability, T/C [24] 2.49% | viability, T/C [25] 2.65% | viability, T/C [26] 2.66% | viability, T/C [27] 5.52% | viability, T/C [28] 10.6% | viability, T/C [29] 2.36% | viability, T/C [30] 6.19% | viability, T/C [31] 2.7% | viability, T/C [32] 3.2% | viability, T/C [33] 2.6% | viability, T/C [34] 5.18% | viability, T/C [35] 4.44% | viability, T/C [36] 4.02% | viability, T/C [37] 3.03% | viability, T/C [38] 2.62% | viability, T/C [39] 4.97% | viability, T/C [40] 2.63%

O=C(c1cc(Cc2n[nH]c(=O)c3ccccc23)ccc1F)N1CCN(C(=O)C2CC2)CC1 + NC1CCC(NC2CC2c2ccccc2)CC1
630 nM: IC50 (second compound 0.1 µM)
519 nM: IC50 (second compound 0.316 µM)
583 nM: IC50 (second compound 3.16 µM)
563 nM: IC50 (second compound 1 µM)
335 nM: IC50 (second compound 10 µM)
active: viability, T/C (second compound 0.316 µM, first compound 10 µM) 10.8% | viability, T/C (second compound 1 µM, first compound 10 µM) 7.07% | viability, T/C (second compound 3.16 µM, first compound 3.16 µM) 7.3% | viability, T/C (second compound 3.16 µM, first compound 10 µM) 5.31% | viability, T/C (second compound 10 µM, first compound 10 µM) 3.97%
inactive: viability, T/C [1] 104% | viability, T/C [2] 113% | viability, T/C (second compound 0.1 µM, first compound 0.316 µM) 78.7% | viability, T/C (second compound 0.1 µM, first compound 1 µM) 31.2% | viability, T/C (second compound 0.1 µM, first compound 3.16 µM) 10.8% | viability, T/C (second compound 0.1 µM, first compound 10 µM) 12.9% | viability, T/C [3] 111% | viability, T/C [4] 98.2% | viability, T/C (second compound 0.316 µM, first compound 0.316 µM) 72.1% | viability, T/C (second compound 0.316 µM, first compound 1 µM) 21.8% | viability, T/C (second compound 0.316 µM, first compound 3.16 µM) 8.68% | viability, T/C [5] 84.7% | viability, T/C [6] 101% | viability, T/C (second compound 1 µM, first compound 0.316 µM) 67.5% | viability, T/C (second compound 1 µM, first compound 1 µM) 30.7% | viability, T/C (second compound 1 µM, first compound 3.16 µM) 10.9% | viability, T/C [7] 100% | viability, T/C [8] 98.8% | viability, T/C (second compound 3.16 µM, first compound 0.316 µM) 75.5% | viability, T/C (second compound 3.16 µM, first compound 1 µM) 27.5% | viability, T/C [9] 96.1% | viability, T/C [10] 74.6% | viability, T/C (second compound 10 µM, first compound 0.316 µM) 53.7% | viability, T/C (second compound 10 µM, first compound 1 µM) 26.1% | viability, T/C (second compound 10 µM, first compound 3.16 µM) 7.89%
